Test results from ChEMBL document CHEMBL5390237, “Discovery of Selective Histone Deacetylase 1 and 2 Inhibitors: Screening of a Focused Library Constructed by Click Chemistry, Kinetic Binding Analysis, and Biological Evaluation” (J Med Chem, 2023).

What follows are compounds tested against Histone deacetylase 2 (Homo sapiens, UniProt Q92769) (assay: Inhibition of full-length recombinant human C-terminal GST tagged HDAC2 expressed in Sf9 insect cells using aminoluciferin peptide substrate at 100 nM preincubated for 3 hrs followed by substrate addition and measured after 30 mins by HDAC-Glo I/II chemiluminescence assay). Settings: time 3.5 hrs.
Chain of Histone deacetylase 2 (Q92769 whole entry): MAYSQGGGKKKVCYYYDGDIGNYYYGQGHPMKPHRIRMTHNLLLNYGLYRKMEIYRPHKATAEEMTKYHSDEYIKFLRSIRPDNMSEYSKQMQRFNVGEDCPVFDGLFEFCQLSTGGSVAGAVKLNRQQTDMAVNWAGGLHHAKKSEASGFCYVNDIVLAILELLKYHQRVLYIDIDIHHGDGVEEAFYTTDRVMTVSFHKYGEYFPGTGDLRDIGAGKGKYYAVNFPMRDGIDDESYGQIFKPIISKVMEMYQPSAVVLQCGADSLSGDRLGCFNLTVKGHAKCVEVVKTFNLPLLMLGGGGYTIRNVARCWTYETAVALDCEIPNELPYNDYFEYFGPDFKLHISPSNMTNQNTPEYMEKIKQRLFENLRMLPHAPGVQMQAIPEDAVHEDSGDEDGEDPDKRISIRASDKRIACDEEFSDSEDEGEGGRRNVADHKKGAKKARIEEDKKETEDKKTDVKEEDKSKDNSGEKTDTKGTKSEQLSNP

First: Nc1ccc(-c2ccsc2)cc1NC(=O)c1cn(CCc2c[nH]c3ccccc23)nn1
Second: Nc1ccc(-c2ccsc2)cc1NC(=O)c1cn(CCc2cccc3ccccc23)nn1
The inhibition of the first is higher: 6% for the first, 0% for the second.

Going from `Nc1ccc(-c2ccccc2)cc1NC(=O)CCc1cn(-c2ccc(O)cc2)nn1` to `Nc1ccc(-c2cccnc2)cc1NC(=O)CCc1cn(-c2ccc(O)cc2)nn1`, the inhibition falls from 3% to 0%.

Going from `Nc1ccc(-c2ccsc2)cc1NC(=O)c1cn(CCc2ccccc2)nn1` to `Nc1ccc(-c2ccsc2)cc1NC(=O)c1cn(CCc2cccc(F)c2)nn1`, the inhibition falls from 17% to 0%.

Going from `Nc1ccc(-c2cccs2)cc1NC(=O)c1ccc(-c2cn(Cc3ccc(C(=O)O)cc3)nn2)cc1` to `Nc1ccc(-c2cccs2)cc1NC(=O)c1ccc(-c2cn(CCc3ccc(F)cc3)nn2)cc1`, the inhibition falls from 42% to 14%.

Compared with `Nc1ccc(-c2cccnc2)cc1NC(=O)CCc1cn(CCc2ccccc2C(F)(F)F)nn1`, `COc1ccccc1CCn1cc(CCC(=O)Nc2cc(-c3cccnc3)ccc2N)nn1` is higher in inhibition: 0% for the first, 10% for the second.

Going from `Nc1ccc(-c2cccs2)cc1NC(=O)c1ccc(-c2cn(CCCc3ccccc3)nn2)s1` to `Nc1ccc(-c2cccs2)cc1NC(=O)c1ccc(-c2cn(CCc3ccccc3)nn2)s1`, the inhibition rises from 16% to 40%.

Going from `Nc1ccc(-c2cccs2)cc1NC(=O)CCc1cn(CCC2CCCCC2)nn1` to `Nc1ccc(-c2cccs2)cc1NC(=O)CCc1cn(CCC2CCCC2)nn1`, the inhibition falls from 4% to 0%.

`Nc1ccc(-c2ccsc2)cc1NC(=O)c1cn(Cc2ccc(-c3ccccc3)cc2)nn1` and `CCc1ccc(Cn2cc(C(=O)Nc3cc(-c4ccccc4)ccc3N)nn2)cc1` are the same in inhibition: 0% for the first, 0% for the second.

`Cc1csc(CCn2cc(C(=O)Nc3cc(-c4ccccc4)ccc3N)nn2)n1` and `Nc1ccc(-c2ccccc2)cc1NC(=O)c1cn(CCc2ccc([N+](=O)[O-])cc2)nn1` are the same in inhibition: 0% for the first, 0% for the second.

First: Nc1ccc(-c2ccc(F)cc2)cc1NC(=O)CCc1cn(CCc2ccccc2C(F)(F)F)nn1
Second: Nc1ccc(-c2ccc(F)cc2)cc1NC(=O)CCc1cn(CCc2ccc(F)cc2)nn1
The inhibition of the first is lower: 0% for the first, 17% for the second.

Compared with `Nc1ccc(-c2cccs2)cc1NC(=O)c1ccc(-c2cn(CCc3cccc4ccccc34)nn2)s1`, `Nc1ccc(-c2cccs2)cc1NC(=O)c1ccc(-c2cn(CCc3ccccn3)nn2)s1` is higher in inhibition: 0% for the first, 71% for the second.

`Nc1ccc(-c2ccc(F)cc2)cc1NC(=O)c1cn(CC23CC4CC(CC(C4)C2)C3)nn1` and `Nc1ccc(-c2cccs2)cc1NC(=O)c1cn(CC23CC4CC(CC(C4)C2)C3)nn1` are the same in inhibition: 0% for the first, 0% for the second.

`Nc1ccc(-c2cccnc2)cc1NC(=O)CCc1cn(Cc2cccc(C(=O)O)c2)nn1` and `Nc1ccc(-c2cccnc2)cc1NC(=O)CCc1cn(C[S+]([O-])c2ccccc2)nn1` (centres undefined) are the same in inhibition: 0% for the first, 0% for the second.

Going from `Nc1ccc(-c2cccs2)cc1NC(=O)c1cn(Cc2ccc(Oc3ccccc3)cc2)nn1` to `Nc1ccc(-c2cccs2)cc1NC(=O)c1cn(Cc2cccc3ccccc23)nn1`, the inhibition rises from 0% to 13%.

Compared with `COc1ccc(CCn2cc(CCC(=O)Nc3cc(-c4cccs4)ccc3N)nn2)cc1`, `Nc1ccc(-c2cccs2)cc1NC(=O)CCc1cn(CCc2ccccc2)nn1` is higher in inhibition: 21% for the first, 26% for the second.

Compared with `Nc1ccc(-c2ccccc2)cc1NC(=O)c1cn(Cc2ccc3ccccc3n2)nn1`, `Nc1ccc(-c2ccccc2)cc1NC(=O)c1cn(Cc2ccc(C(=O)O)cc2)nn1` is higher in inhibition: 6% for the first, 27% for the second.

First: Nc1ccc(-c2cccs2)cc1NC(=O)c1ccc(-c2cn(CCCCCc3ccccc3)nn2)cc1
Second: Nc1ccc(-c2cccs2)cc1NC(=O)c1cccc(-c2cn(CCCc3ccccc3)nn2)c1
The inhibition of the first is lower: 0% for the first, 4% for the second.

Going from `Nc1ccc(-c2cccnc2)cc1NC(=O)CCc1cn(CCCCC(=O)O)nn1` to `Nc1ccc(-c2cccs2)cc1NC(=O)CCc1cn(CCCCCCC(=O)O)nn1`, the inhibition rises from 0% to 9%.

`Nc1ccc(-c2cccs2)cc1NC(=O)c1ccc(-c2cn(CCC3CCCC3)nn2)s1` and `Nc1ccc(-c2cccs2)cc1NC(=O)c1ccc(-c2cn(CCC34CC5CC(CC(C5)C3)C4)nn2)s1` are the same in inhibition: 0% for the first, 0% for the second.

`Nc1ccc(-c2cccs2)cc1NC(=O)c1ccc(-c2cn(CCc3ccc(C(F)(F)F)cc3)nn2)s1` and `Nc1ccc(-c2cccs2)cc1NC(=O)c1cccc(-c2cn(CCc3ccsc3)nn2)c1` are the same in inhibition: 0% for the first, 0% for the second.

`Nc1ccc(-c2cccs2)cc1NC(=O)c1cccc(-c2cn(CC34CC5CC(CC(C5)C3)C4)nn2)c1` and `COc1ccc(Cn2cc(-c3cccc(C(=O)Nc4cc(-c5cccs5)ccc4N)c3)nn2)cc1` are the same in inhibition: 0% for the first, 0% for the second.

Compared with `Nc1ccc(-c2cccs2)cc1NC(=O)c1ccc(-c2cn(Cc3ccc4ccccc4c3)nn2)cc1`, `COc1ccccc1CCn1cc(-c2ccc(C(=O)Nc3cc(-c4cccs4)ccc3N)cc2)nn1` is higher in inhibition: 12% for the first, 29% for the second.

Going from `Nc1ccc(-c2cccnc2)cc1NC(=O)CCc1cn(CCc2ccc(C(F)(F)F)cc2)nn1` to `COc1ccc(-n2cc(CCC(=O)Nc3cc(-c4cccnc4)ccc3N)nn2)cc1`, the inhibition rises from 0% to 9%.

First: COc1ccc(CCn2cc(CCC(=O)Nc3cc(-c4ccc(F)cc4)ccc3N)nn2)cc1
Second: COc1ccc(Cn2cc(CCC(=O)Nc3cc(-c4ccc(F)cc4)ccc3N)nn2)cc1
The inhibition of the first is higher: 34% for the first, 17% for the second.

Going from `Nc1ccc(-c2cccs2)cc1NC(=O)CCc1cn(-c2ccc(I)cc2)nn1` to `Nc1ccc(-c2cccs2)cc1NC(=O)c1cccc(-c2cn(-c3ccc(O)cc3)nn2)c1`, the inhibition rises from 8% to 13%.

Going from `Nc1ccc(-c2cccs2)cc1NC(=O)c1cccc(-c2cn(CCc3cccc([N+](=O)[O-])c3)nn2)c1` to `Cc1ccccc1CCn1cc(-c2cccc(C(=O)Nc3cc(-c4cccs4)ccc3N)c2)nn1`, the inhibition falls from 4% to 0%.

First: Nc1ccc(-c2ccc(F)cc2)cc1NC(=O)CCc1cn(Cc2nc3ccccc3[nH]2)nn1
Second: Nc1ccc(-c2ccc(F)cc2)cc1NC(=O)CCc1cn(C[S+]([O-])c2ccccc2)nn1 (centres undefined)
The inhibition of the first is higher: 32% for the first, 17% for the second.

First: Nc1ccc(-c2ccsc2)cc1NC(=O)CCc1cn(CCc2cccc(Cl)c2)nn1
Second: Nc1ccc(-c2ccsc2)cc1NC(=O)CCc1cn(CCc2ccsc2)nn1
The inhibition of the first is lower: 15% for the first, 19% for the second.

Going from `Nc1ccc(-c2ccsc2)cc1NC(=O)c1cn(CCc2cccc([N+](=O)[O-])c2)nn1` to `Nc1ccc(-c2ccsc2)cc1NC(=O)c1cn(CCc2ccccc2[N+](=O)[O-])nn1`, the inhibition rises from 1% to 2%.

First: Nc1ccc(-c2ccc(F)cc2)cc1NC(=O)c1cn(/C=C/c2ccccc2)nn1
Second: Nc1ccc(-c2ccc(F)cc2)cc1NC(=O)c1cn(CCc2ccccc2)nn1
The inhibition of the first is lower: 3% for the first, 17% for the second.

Going from `Cc1csc(CCn2cc(CCC(=O)Nc3cc(-c4ccc(F)cc4)ccc3N)nn2)n1` to `Nc1ccc(-c2ccc(F)cc2)cc1NC(=O)CCc1cn(CC(=O)c2ccccc2)nn1`, the inhibition falls from 37% to 19%.

First: Cc1cccc(C)c1NC(=O)Cn1cc(-c2cccc(C(=O)Nc3cc(-c4cccs4)ccc3N)c2)nn1
Second: Nc1ccc(-c2ccccc2)cc1NC(=O)c1cn(CC(=O)Nc2ccc(F)cc2)nn1
The inhibition of the first is higher: 8% for the first, 0% for the second.

`Nc1ccc(-c2ccc(F)cc2)cc1NC(=O)c1cn(CCc2cccc3ccccc23)nn1` and `Nc1ccc(-c2ccccc2)cc1NC(=O)c1cn(CCCCCC(=O)O)nn1` are the same in inhibition: 0% for the first, 0% for the second.

Compared with `Nc1ccc(-c2ccsc2)cc1NC(=O)CCc1cn(-c2ccccc2-c2ccccc2)nn1`, `Nc1ccc(-c2ccsc2)cc1NC(=O)c1cn(CCCCCC(=O)O)nn1` is lower in inhibition: 2% for the first, 0% for the second.

For `Nc1ccc(-c2ccccc2)cc1NC(=O)c1cn(CC2CCCCC2)nn1`, the inhibition was 0%.
